The test system of one data set is LNCaP. The data set can be described thus: Anti-proliferative activity on LNCaP in complete medium. To be noted: Homo sapiens, 144 h incubation, Cell-Titer-Glow. It is filed as cell-based. How it is done: 1. Anti-Proliferative Activity on LNCaP in Complete Medium
The anti-proliferative activity of the compounds of the present invention is determined on LNCaP in complete medium by applying the following experimental procedure:
The LNCaP cell type (ATCC, 1740) originates from a prostate carcinoma. This line expresses the androgen receptor and is hormone-dependent.
(§1) Maintenance of the LNCaP line is carried out in complete culture medium: RPMI, 10% of fetal calf serum, 2 mM glutamine, 100 U/ml penicillin, 0.1 mg/ml of streptomycin and 0.01M HEPES, 1 mM sodium pyruvate, 40% of D-glucose. • Seeding the plates: The LNCaP line is seeded at 20,000 cells/well in 90 μl of complete medium in 96-well plates coated with poly-D-lysine (Biocoat, Costar). • Treatment of the cells: 24 h after the seeding, the cells are treated with 10 μl/well of compound diluted in the culture medium. The concentrations used are the following: 1 nM/10/30/100/300/1000/3000/10,000 nM. The cells are incubated for 144 h at 37° C., 5% CO2. • Reading: After incubation for 6 days, cell proliferation was determined by Cell-Titer-Glow (CTG) Luminescent Cell Viability Assay. • Results: The experiments are carried out in duplicate and the best compounds are tested twice. A concentration value inhibiting the cell proliferation by 50% (IC50) is calculated.

The test system of the next data set is DU145. Briefly: Anti-proliferative activity on DU145 in complete medium. It is filed as cell-based. Conditions: Homo sapiens, DU-145, 144 h incubation, Cell-Titer-Glow, line does not express androgen receptor. As for the experimental part:
2. Anti-Proliferative Activity on DU145 in Complete Medium
as §1, with “It is used to evaluate the selectivity” for “Maintenance”, “compounds for androgen receptor expressing cells. No activity of the compounds is expected. • The cells of the DU145” for “LNCaP”, “(ATCC HTB-81) are” for “is carried out in complete culture medium: RPMI, 10% of fetal calf serum, 2 mM glutamine, 100 U/ml penicillin, 0.1 mg/ml of streptomycin and 0.01M HEPES, 1 mM sodium pyruvate, 40% of D-glucose. • Seeding the plates: The LNCaP line is”, “800” for “20,000”, “Assay” for “Assay.”

The nature of data set [1]: Evaluation of solubility in potassium phosphate buffer pH 7.4. It is filed as physicochemical. To be noted: aqueous buffer, kinetic from dmso stock; 100 mM potassium phosphate buffer pH 7.4, target 10 μM, 0.1% DMSO, 1 hour room temperature, LC-MS/MS. As for the experimental part:
Evaluation of Solubility:
Test compounds were prepared as stock solutions at […] in DMSO. The stock solutions were diluted, in duplicate, into 100 mM potassium phosphate buffer (pH 7.4) to a target concentration of 10 μM with a final DMSO concentration of 0.1%. The solutions were shaken at 1000 rpm for 1 hour at room temperature followed by centrifugation for 10 minutes at 1200 rpm to precipitate un-dissolved particles. The supernatants were transferred to new tubes and the samples were further prepared as follows: • Undiluted: 5 μL of supernatant to 95 μL of ACN containing internal standard (IS) • 1:10 diluted: 10 μL of the supernatant into 90 μL K-buffer, mix, then transfer 5 μL of 1:10 diluted samples to 95 μL ACN containing IS • 1:100 diluted: 10 μL of the supernatant into 990 μL K-buffer, mix, then transfer 5 μL of 1:100 diluted samples to 95 μL of ACN containing IS
Samples (undiluted, 1:10 diluted, and 1:100 diluted) along with the standards were analyzed by LC-MS/MS.

A further data set deals with VCaP. Briefly: Anti-proliferative activity on VCaP in complete medium. To be noted: Homo sapiens, 216 h, Cell-Titer-Glow, reading after 9 days. It is filed as cell-based. As for the experimental part:
3. Anti-Proliferative Activity on VCaP in Complete Medium • The cells of the VCaP line (ATCC CRL-2876) are seeded at 20000 cells/well in 90 μl of complete medium in 96-well plates coated with poly-D-lysine (Biocoat, Costar). • Treatment of the cells: 24 h after the seeding, the cells are treated with 10 μl/well of compound diluted in the culture medium. The concentrations used are the following: 1 nM/10/30/100/300/1000/3000/10,000 nM. The cells are incubated for […] at 37° C., 5% CO2. • Reading: After incubation for […], cell proliferation was determined by Cell-Titer-Glow (CTG) Luminescent Cell Viability Assay • Results: The experiments are carried out in duplicate and the best compounds are tested twice. A concentration value inhibiting the cell proliferation by 50% (IC50) is calculated.

The next data set deals with T1, androgen receptor (Homo sapiens, UniProt P10275, T878A).
T1 construct: This line expresses the androgen receptor and is hormone-dependent; endogenous in cells; host or cells: LNCaP (ATCC, 1740)
T1 sequence (P10275 1-920 T878A): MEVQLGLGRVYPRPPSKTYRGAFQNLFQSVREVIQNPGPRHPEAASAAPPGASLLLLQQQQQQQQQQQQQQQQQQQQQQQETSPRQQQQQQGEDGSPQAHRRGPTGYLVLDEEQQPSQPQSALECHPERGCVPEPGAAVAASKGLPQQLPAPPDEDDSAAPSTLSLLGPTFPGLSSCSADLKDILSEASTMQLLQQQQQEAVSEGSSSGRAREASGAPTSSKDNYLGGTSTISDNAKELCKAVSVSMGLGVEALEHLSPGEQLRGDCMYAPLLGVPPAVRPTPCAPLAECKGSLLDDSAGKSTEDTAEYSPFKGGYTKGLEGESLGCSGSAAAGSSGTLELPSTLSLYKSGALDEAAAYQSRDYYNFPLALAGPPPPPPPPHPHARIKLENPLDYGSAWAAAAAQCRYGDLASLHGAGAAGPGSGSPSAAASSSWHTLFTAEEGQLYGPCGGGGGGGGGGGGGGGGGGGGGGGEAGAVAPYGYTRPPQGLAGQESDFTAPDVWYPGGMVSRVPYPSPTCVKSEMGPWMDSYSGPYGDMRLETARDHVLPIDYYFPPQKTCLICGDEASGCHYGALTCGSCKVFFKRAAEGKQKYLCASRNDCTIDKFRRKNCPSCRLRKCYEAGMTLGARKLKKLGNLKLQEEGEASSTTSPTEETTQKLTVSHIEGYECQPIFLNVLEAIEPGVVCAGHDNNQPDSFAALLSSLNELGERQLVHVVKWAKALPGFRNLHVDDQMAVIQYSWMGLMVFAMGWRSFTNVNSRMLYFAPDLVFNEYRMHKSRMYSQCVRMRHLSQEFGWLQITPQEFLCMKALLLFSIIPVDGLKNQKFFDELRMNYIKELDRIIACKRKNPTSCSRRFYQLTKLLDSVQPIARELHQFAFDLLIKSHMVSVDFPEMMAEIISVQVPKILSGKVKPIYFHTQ
The data set can be described thus: Measurement of protein expression of the androgen receptor in LNCaP cells (AR ELISA). Conditions: 3 days treatment, whole cell protein, AR ELISA kit; read-out: IC50 AR destruction in LNCaP. It is filed as cell-based. How it is done:
Measurement of Protein Expression of the Androgen Receptor
The cells of the LNCaP line are seeded at a rate of 2.5 million of cells per 10 cm Petri dish and maintained in 8 ml RPMI-1640 for 4 days. After 4 days incubation, 4 ml of medium were removed from the Petri dish and 5 ml fresh medium was added carefully. 1 ml of compounds 10-fold diluted in complete medium at concentrations from 3×10^-6 M to 10^-8 M. Cells were treated with the compounds for additional 3 days. The whole cell protein was extracted by Nuclear Extract kit and quantitated by the Bradford Protein Assay. The effect of compounds on AR levels in LNCaP cells was then determined by an AR ELISA kit.
For orientation: An ELISA detects its analyte on a solid surface through an enzyme-linked reagent.

Data set [2] has as its system human prostate cancer cells. Conditions: agonist activity in place of antagonist activity; cited from earlier work.

Molecules are shown by their SMILES. ≈ marks a conversion by molar mass, not a printed value. A value given as a limit tells only on which side of the number the result lay.

For `CC1(C)C(=O)N(c2ccc(C#N)c(C(F)(F)F)c2)C(=O)N1C/C=C\CN1C(=O)N(c2ccc(S(C)(=O)=O)c(C(F)(F)F)c2)C(=O)C1(C)C` [Example 1, (Z)-4-(3-(4-(5,5-dimethyl-3-(4-(methylsulfonyl)-3-(trifluoromethyl)phenyl)-2,4-dioxoimidazolidin-1-yl)but-2-en-1-yl)-4,4-dimethyl-2,5-dioxoimidazolidin-1-yl)-2-(trifluoromethyl)benzonitrile], the IC50 with LNCaP is 313 nM; with DU145, > 10 µM; in the data set on VCaP it was 551 nM. This molecule also yielded a solubility at 1 h in data set [1] of 2.66 µM (≈ 1.86 µg/mL). The DC50 at androgen receptor stood at 123 nM.

`CC1(C)C(=O)N(c2ccc(S(C)(=O)=O)c(C(F)(F)F)c2)C(=O)N1C/C=C\CN1C(=O)N(c2cnc(C#N)c(C(F)(F)F)c2)C(=O)C1(C)C` [Example 2, (Z)-5-(3-(4-(5,5-dimethyl-3-(4-(methylsulfonyl)-3-(trifluoromethyl)phenyl)-2,4-dioxoimidazolidin-1-yl)but-2-en-1-yl)-4,4-dimethyl-2,5-dioxoimidazolidin-1-yl)-3-(trifluoromethyl)picolinonitrile]: the IC50 in the data set on LNCaP was 1590 nM; in the data set on DU145, > 10 µM; with VCaP, 1050 nM. Besides, the solubility at 1 h in data set [1] came out at 0.14 µM (≈ 0.0981 µg/mL). The DC50 at androgen receptor is 946 nM.

Regarding `CC1(C)C(=O)N(c2ccc(C#N)c(C(F)(F)F)c2)C(=O)N1C/C=C\CN1CC(=O)N(c2ccc(S(C)(=O)=O)c(C(F)(F)F)c2)C1=O` [Example 3, (Z)-4-(4,4-dimethyl-3-(4-(3-(4-(methylsulfonyl)-3-(trifluoromethyl)phenyl)-2,4-dioxoimidazolidin-1-yl)but-2-en-1-yl)-2,5-dioxoimidazolidin-1-yl)-2-(trifluoromethyl)benzonitrile], the IC50 in the data set on LNCaP was 1120 nM; in the data set with DU145, > 10 µM. This molecule also displayed a solubility at 1 h in data set [1] of 0.53 µM (≈ 0.356 µg/mL).

On to `CC1(C)NC(=O)N(c2ccc([N+](=O)[O-])c(C(F)(F)F)c2)C1=O` [nilutamide], for which the “effect on growth of human prostate cancer cells in culture” value in data set [2] is recorded as “capable of stimulating the growth”.

In general, IC50 refers to the concentration at which inhibition is half-maximal. One may read the solubility as the dissolved amount per volume that the medium holds. A higher solubility goes with a readily soluble substance.

(Values after US9676752B2, “Imidazolidine-2,4-dione derivatives” (IPSEN PHARMA S.A.S., priority 2013, dated 2017).)
